Measurements taken from patent US9937151B2, “Carbapenem antibacterials with gram-negative activity” (priority 2010, dated 2018).
Converted amounts (≈) assume the structure as drawn.

Test system: G(−) bacterial strains
Assay: Dilution antimicrobial susceptibility tests (MIC, NCCLS agar dilution / broth dilution)
Format: cell-based, Gram-negative organisms
Settings: unit assumed
Description: The MIC (minimum inhibitory concentration) was determined by the NCCLS (National Committee for Clinical Laboratory Standards) methods 2000. Methods for dilution antimicrobial susceptibility testing for bacteria that growth aerobically (M7-A5, vol. 20, No. 2). The agar dilution method for determining antimicrobial susceptibility was carried out using Mueller-Hinton agar. A final inoculum of 10^4 CFU/spot was applied with an inoculation device. Broth dilution tests were performed with 5×10^5 CFU/well in 96 well plates. The susceptibilities of streptococci were determined by Mueller-Hinton agar supplemented with 5% sheep blood. All assays were run with the indicated control strains, available from the ATCC (American Type Culture Collection, Rockville, Md.).
Abbreviations used in Table 1 are defined as follows: Cf-R: Ceftazidime Resistance, Ci-R: Ciprofloxacin Resistance, Gen-R: Gentamycin Resistance, Imp-R: Imipenem Resistance, Mp-R: Meropenem Resistance, Ofx-R: Ofloxacin Resistance, B+: β-lactamase Production, AmpC: AmpC-lactamase Hyper production, CBPase: Carbapenemase Production.

[1] = strain #1 Acinetobacter calcoaceticus
[2] = strain #2 Acinetobacter baumannii, Cf-R, Ci-R
[3] = strain #3 Acinetobacter baumannii, Cf-R, Ci-R, Mp-I
[4] = strain #4 Acinetobacter baumannii, Cf-R, Imp-I, CBPase
[5] = strain #7 Enterobacter aerogenes
[6] = strain #8 Enterobacter cloacae, Cf-R, B+
[7] = strain #9 Enterobacter cloacae, Cf-R
[8] = strain #10 Escherichia coli, Ci-R
[9] = strain #11 Escherichia coli, Ci-R, AmpC
[10] = strain #15 Klebsiella pneumoniae
[11] = strain #16 Moraxella catarrhalis
[12] = strain #21 Providencia rettgeri
[13] = strain #22 Salmonella typhimurium
[14] = strain #25 Shigella dysenteriae
[15] = strain #28 Stenotrophomonas maltophilia
[16] = strain #29 Pseudomonas aeruginosa
[17] = strain #30 Pseudomonas aeruginosa
[18] = strain #31 Pseudomonas aeruginosa, Ofx-R
[19] = strain #32 Pseudomonas aeruginosa, Cf-R
[20] = strain #33 Pseudomonas aeruginosa, Ci-R
[21] = strain #34 Pseudomonas aeruginosa, Gen-R
[22] = strain #35 Pseudomonas aeruginosa, Ip-R
[23] = strain #36 Pseudomonas aeruginosa, Cf-R, Ci-R, Mp-R

Structure (SMILES) | MIC [1] [µg/mL] | MIC [2] [µg/mL] | MIC [3] [µg/mL] | MIC [4] [µg/mL] | MIC (strain #5 Citrobacter diversus) [µg/mL] | MIC (strain #6 Citrobacter freundii) [µg/mL] | MIC [5] [µg/mL] | MIC [6] [µg/mL] | MIC [7] [µg/mL] | MIC [8] [µg/mL] | MIC [9] [µg/mL] | MIC (strain #12 Escherichia coli) [µg/mL] | MIC (strain #13 Escherichia coli) [µg/mL] | MIC (strain #14 Klebsiella oxytoca) [µg/mL] | MIC [10] [µg/mL] | MIC [11] [µg/mL] | MIC (strain #17 Morganella Morganii) [µg/mL] | MIC (strain #18 Morganella Morganii) [µg/mL] | MIC (strain #19 Proteus vulgaris) [µg/mL] | MIC (strain #20 Proteus mirabilis) [µg/mL] | further results
C[C@@H](O)C1C(=O)N2C(C(=O)O)=C(CN3CC(N)C3)[C@H](C)C12 (stereo partly drawn) [Compound 93] | 1 (≈ 3.39 µM) | 2 (≈ 6.77 µM) | 8 (≈ 27.1 µM) | 2 (≈ 6.77 µM) | 0.25 (≈ 0.846 µM) | 0.5 (≈ 1.69 µM) | 2 (≈ 6.77 µM) | 0.25 (≈ 0.846 µM) | 0.5 (≈ 1.69 µM) | 0.25 (≈ 0.846 µM) | 0.25 (≈ 0.846 µM) | 0.25 (≈ 0.846 µM) | 0.5 (≈ 1.69 µM) | 0.5 (≈ 1.69 µM) | 0.5 (≈ 1.69 µM) | 0.031 (≈ 0.105 µM) | 8 (≈ 27.1 µM) | 4 (≈ 13.5 µM) | 2 (≈ 6.77 µM) | 0.5 (≈ 1.69 µM) | MIC [12]: 2 µg/mL (≈ 6.77 µM); MIC [13]: 0.5 µg/mL (≈ 1.69 µM); MIC (strain #23 Serratia marcescens): 1 µg/mL (≈ 3.39 µM); MIC (strain #24 Serratia marcescens): 1 µg/mL (≈ 3.39 µM); MIC [14]: 0.5 µg/mL (≈ 1.69 µM); MIC (strain #26 Shigella sonnei): 0.5 µg/mL (≈ 1.69 µM); MIC (strain #27 Shigella flexneri): 0.25 µg/mL (≈ 0.846 µM); MIC [15]: 0.5 µg/mL (≈ 1.69 µM); MIC [16]: 4 µg/mL (≈ 13.5 µM); MIC [17]: 4 µg/mL (≈ 13.5 µM); MIC [18]: 4 µg/mL (≈ 13.5 µM); MIC [19]: 4 µg/mL (≈ 13.5 µM); MIC [20]: 8 µg/mL (≈ 27.1 µM); MIC [21]: 8 µg/mL (≈ 27.1 µM); MIC [22]: 16 µg/mL (≈ 54.2 µM); MIC [23]: 16 µg/mL (≈ 54.2 µM)
C[C@@H](O)C1C(=O)N2C(C(=O)O)=C(CN3CC[C@H](CNC(=N)N)C3)[C@H](C)C12 (stereo partly drawn) [Compound 99] | 0.25 (≈ 0.684 µM) | 1 (≈ 2.74 µM) | 2 (≈ 5.47 µM) | 2 (≈ 5.47 µM) | 0.5 (≈ 1.37 µM) | 1 (≈ 2.74 µM) | 2 (≈ 5.47 µM) | 0.5 (≈ 1.37 µM) | 1 (≈ 2.74 µM) | 0.5 (≈ 1.37 µM) | 0.5 (≈ 1.37 µM) | 0.5 (≈ 1.37 µM) | 1 (≈ 2.74 µM) | 2 (≈ 5.47 µM) | 1 (≈ 2.74 µM) | ≤ 0.008 | 4 (≈ 10.9 µM) | 4 (≈ 10.9 µM) | 2 (≈ 5.47 µM) | 1 (≈ 2.74 µM) | MIC [12]: 4 µg/mL (≈ 10.9 µM); MIC [13]: 1 µg/mL (≈ 2.74 µM); MIC (strain #23 Serratia marcescens): 2 µg/mL (≈ 5.47 µM); MIC (strain #24 Serratia marcescens): 4 µg/mL (≈ 10.9 µM); MIC [14]: 1 µg/mL (≈ 2.74 µM); MIC (strain #26 Shigella sonnei): 1 µg/mL (≈ 2.74 µM); MIC (strain #27 Shigella flexneri): 1 µg/mL (≈ 2.74 µM); MIC [15]: 0.25 µg/mL (≈ 0.684 µM); MIC [16]: 2 µg/mL (≈ 5.47 µM); MIC [17]: 2 µg/mL (≈ 5.47 µM); MIC [18]: 1 µg/mL (≈ 2.74 µM); MIC [19]: 4 µg/mL (≈ 10.9 µM); MIC [20]: 4 µg/mL (≈ 10.9 µM); MIC [21]: 4 µg/mL (≈ 10.9 µM); MIC [22]: 4 µg/mL (≈ 10.9 µM); MIC [23]: > 32 µg/mL
C[C@@H](O)C1C(=O)N2C(C(=O)O)=C(CN3CC[C@H](NC(=N)NS(C)(=O)=O)C3)[C@H](C)C12 (stereo partly drawn) [Compound 106] | 4 (≈ 9.31 µM) | 2 (≈ 4.66 µM) | 8 (≈ 18.6 µM) | 2 (≈ 4.66 µM) | 1 (≈ 2.33 µM) | 1 (≈ 2.33 µM) | 2 (≈ 4.66 µM) | 1 (≈ 2.33 µM) | 2 (≈ 4.66 µM) | 1 (≈ 2.33 µM) | 0.5 (≈ 1.16 µM) | 1 (≈ 2.33 µM) | 1 (≈ 2.33 µM) | 2 (≈ 4.66 µM) | 1 (≈ 2.33 µM) | ≤ 0.008 | 4 (≈ 9.31 µM) | 4 (≈ 9.31 µM) | 2 (≈ 4.66 µM) | 1 (≈ 2.33 µM) | MIC [12]: 4 µg/mL (≈ 9.31 µM); MIC [13]: 1 µg/mL (≈ 2.33 µM); MIC (strain #23 Serratia marcescens): 2 µg/mL (≈ 4.66 µM); MIC (strain #24 Serratia marcescens): 2 µg/mL (≈ 4.66 µM); MIC [14]: 1 µg/mL (≈ 2.33 µM); MIC (strain #26 Shigella sonnei): 1 µg/mL (≈ 2.33 µM); MIC (strain #27 Shigella flexneri): 0.5 µg/mL (≈ 1.16 µM); MIC [15]: 1 µg/mL (≈ 2.33 µM); MIC [16]: 8 µg/mL (≈ 18.6 µM); MIC [17]: 8 µg/mL (≈ 18.6 µM); MIC [18]: 4 µg/mL (≈ 9.31 µM); MIC [19]: 8 µg/mL (≈ 18.6 µM); MIC [20]: 8 µg/mL (≈ 18.6 µM); MIC [21]: 8 µg/mL (≈ 18.6 µM); MIC [22]: 16 µg/mL (≈ 37.3 µM); MIC [23]: > 32 µg/mL
CC(=O)NC(=N)N[C@H]1CCN(CC2=C(C(=O)O)N3C(=O)C([C@@H](C)O)C3[C@H]2C)C1 (stereo partly drawn) [Compound 111] | 1 (≈ 2.54 µM) | 4 (≈ 10.2 µM) | 4 (≈ 10.2 µM) | 4 (≈ 10.2 µM) | 0.5 (≈ 1.27 µM) | 0.5 (≈ 1.27 µM) | 2 (≈ 5.08 µM) | 1 (≈ 2.54 µM) | 1 (≈ 2.54 µM) | 0.5 (≈ 1.27 µM) | 0.5 (≈ 1.27 µM) | 0.5 (≈ 1.27 µM) | 0.5 (≈ 1.27 µM) | 1 (≈ 2.54 µM) | 1 (≈ 2.54 µM) | ≤ 0.008 | 4 (≈ 10.2 µM) | 2 (≈ 5.08 µM) | 2 (≈ 5.08 µM) | 0.5 (≈ 1.27 µM) | MIC [12]: 2 µg/mL (≈ 5.08 µM); MIC [13]: 0.5 µg/mL (≈ 1.27 µM); MIC (strain #23 Serratia marcescens): 1 µg/mL (≈ 2.54 µM); MIC (strain #24 Serratia marcescens): 2 µg/mL (≈ 5.08 µM); MIC [14]: 0.5 µg/mL (≈ 1.27 µM); MIC (strain #26 Shigella sonnei): 0.5 µg/mL (≈ 1.27 µM); MIC (strain #27 Shigella flexneri): 0.5 µg/mL (≈ 1.27 µM); MIC [15]: 0.5 µg/mL (≈ 1.27 µM); MIC [16]: 4 µg/mL (≈ 10.2 µM); MIC [17]: 4 µg/mL (≈ 10.2 µM); MIC [18]: 1 µg/mL (≈ 2.54 µM); MIC [19]: 4 µg/mL (≈ 10.2 µM); MIC [20]: 8 µg/mL (≈ 20.3 µM); MIC [21]: 4 µg/mL (≈ 10.2 µM); MIC [22]: 8 µg/mL (≈ 20.3 µM); MIC [23]: > 32 µg/mL
